Read-outs that look alike come from different tables or passages of the source.
Columns and labels:
Assay type in all cases: biochemical
[1] = biological target: Acetylcholinesterase (AChE) (Homo sapiens, UniProt P22303); assay: Acetylcholinesterase inhibition efficiency (acetylthiocholine/DTNB absorbance)
Procedure: (§1) Concentrations of 0, 2, 5, 10, 20, 50, 100, and 200 μM of the synthesized compounds were prepared by dilution in 10% DMSO, 63% phosphate buffer, and 27% tween 80, and 50 μl was dispensed into a 96-well plate. Acetylcholinesterase or butyrylcholinesterase was prepared at 0.5 U/ml, 50 μl was added to a 96-well plate, mixed with the aliquoted compound, and left for 10 minutes. The substrate, acetylthiocholine or butyrylthiocholine, was prepared at 0.4mg/ml, then 50 μl was added to a 96-well plate and left for 20 minutes. Dithionitrobenzoic acid (DTNB) was prepared at 1.2 mg/ml, then 50 μl was added to a 96-well plate and left for 10minutes.

[2] = biological target: Butyrylcholinesterase (BuChE) (Homo sapiens, UniProt P06276); assay: Butyrylcholinesterase inhibition efficiency (butyrylthiocholine/DTNB absorbance)
Butyrylcholinesterase (BuChE), sequence (P06276 29-602): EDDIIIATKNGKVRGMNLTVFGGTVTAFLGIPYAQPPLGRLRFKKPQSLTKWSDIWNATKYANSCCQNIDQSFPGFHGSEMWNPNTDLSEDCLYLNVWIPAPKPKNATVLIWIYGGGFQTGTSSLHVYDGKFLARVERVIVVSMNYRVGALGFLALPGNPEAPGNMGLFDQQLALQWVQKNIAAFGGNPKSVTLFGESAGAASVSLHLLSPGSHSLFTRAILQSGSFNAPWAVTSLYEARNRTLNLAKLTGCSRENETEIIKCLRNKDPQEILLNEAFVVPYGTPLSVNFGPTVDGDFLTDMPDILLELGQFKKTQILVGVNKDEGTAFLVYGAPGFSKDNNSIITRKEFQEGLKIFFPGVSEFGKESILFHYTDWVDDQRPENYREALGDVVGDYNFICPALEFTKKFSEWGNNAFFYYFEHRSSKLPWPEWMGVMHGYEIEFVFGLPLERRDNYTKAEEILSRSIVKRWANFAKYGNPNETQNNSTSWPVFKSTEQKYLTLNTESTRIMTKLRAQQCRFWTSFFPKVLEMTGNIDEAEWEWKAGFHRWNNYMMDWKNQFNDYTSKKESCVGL
Procedure: as §1

[3] = biological target: T1, Monoamine oxidase B (MAO-B) (Homo sapiens, UniProt P27338); assay: Monoamine oxidase B inhibition efficiency (kynuramine fluorescence)
T1 sequence (P27338 1-520): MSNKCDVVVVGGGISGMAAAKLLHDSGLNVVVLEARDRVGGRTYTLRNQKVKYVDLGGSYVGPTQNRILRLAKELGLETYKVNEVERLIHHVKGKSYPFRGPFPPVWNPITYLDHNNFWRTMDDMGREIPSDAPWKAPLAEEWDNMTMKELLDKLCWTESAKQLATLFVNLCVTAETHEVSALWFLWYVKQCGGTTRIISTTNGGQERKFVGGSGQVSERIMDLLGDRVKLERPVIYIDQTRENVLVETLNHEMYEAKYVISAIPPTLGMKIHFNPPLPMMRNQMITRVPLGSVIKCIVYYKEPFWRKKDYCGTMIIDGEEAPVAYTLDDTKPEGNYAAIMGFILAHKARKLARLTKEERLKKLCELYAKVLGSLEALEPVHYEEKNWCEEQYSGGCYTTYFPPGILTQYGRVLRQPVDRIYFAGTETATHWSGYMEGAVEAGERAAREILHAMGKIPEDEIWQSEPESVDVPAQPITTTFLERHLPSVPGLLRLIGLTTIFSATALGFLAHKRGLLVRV
Procedure: Samples were prepared by dilution with DMSO to give concentrations of 0, 2, 5, 10, 20, 50, 100, and 200 μM of the compound, and 5 μl was dispensed into a 96-well plate. 135 μl of potassium phosphate buffer (0.1 M, 7.4 pH) was dispensed into a 96-well plate. Monoamine oxidase B was prepared at 40 μl/ml, and 50 μl was added to the 96-well plate, mixed with the dispensed compound, and left for 20 minutes. The substrate, kynuramine solution, was prepared at 100 μM, then 10 μl was added to a 96-well plate and left for 10 min. The reaction was stopped by adding 75 μl of NaOH (2N). For the fluorescence blank experiment, potassium phosphate buffer was added instead of monoamine oxidase B to correct the compound-induced fluorescence intensity values.

[4] = 0.5 U/ml enzyme, butyrylthiocholine substrate, compound 0-200 μM, read-out: IC50 for BuChE
[5] = kynuramine substrate, potassium phosphate buffer pH 7.4, compound 0-200 μM, read-out: IC50 for MAOB
[6] = 0.5 U/ml enzyme, acetylthiocholine substrate, compound 0-200 μM, read-out: IC50 for AChE

Acetylcholinesterase (AChE), sequence (P22303 32-614, species assumed): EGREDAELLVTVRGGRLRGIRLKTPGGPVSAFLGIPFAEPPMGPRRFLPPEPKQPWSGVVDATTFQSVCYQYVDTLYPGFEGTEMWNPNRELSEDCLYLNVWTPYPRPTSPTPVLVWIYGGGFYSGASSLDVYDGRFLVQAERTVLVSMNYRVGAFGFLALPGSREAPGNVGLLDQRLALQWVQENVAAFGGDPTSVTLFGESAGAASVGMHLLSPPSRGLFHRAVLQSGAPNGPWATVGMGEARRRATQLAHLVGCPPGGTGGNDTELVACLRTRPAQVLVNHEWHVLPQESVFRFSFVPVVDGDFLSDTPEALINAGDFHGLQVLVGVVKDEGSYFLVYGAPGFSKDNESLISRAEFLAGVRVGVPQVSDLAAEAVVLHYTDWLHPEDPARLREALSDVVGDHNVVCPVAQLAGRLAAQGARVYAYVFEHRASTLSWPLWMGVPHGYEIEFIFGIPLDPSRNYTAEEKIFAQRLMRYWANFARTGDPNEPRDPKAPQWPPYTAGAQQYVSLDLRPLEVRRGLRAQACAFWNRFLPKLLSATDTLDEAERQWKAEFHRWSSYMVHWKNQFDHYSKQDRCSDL

| SMILES | IC50 [1] | IC50 [2] | IC50 [3] | IC50 [2, 4] | IC50 [3, 5] | IC50 [1, 6] |
| --- | --- | --- | --- | --- | --- | --- |
| C=C(C)[C@@H]1CCC(C)=C[C@H]1c1c(O)cc(O)cc1CCCCC [compound 1a, (1′R,2′R)-5′-methyl-6-pentyl-2′-(prop-1-en-2-yl)-1′,2′,3′,4′-tetrahydro-[1, 1′-biphenyl]-2,4-diol] | 3.1 µM | 1.7 µM | 44 µM |  |  |  |
| C=C(C)[C@@H]1CCC(C)=C[C@H]1c1c(O)cc(O)cc1CCC [compound 1b, (1′R,2′R)-5′-methyl-2′-(prop-1-en-2-yl)-6-propyl-1′,2′,3′,4′-tetrahydro-[1, 1′-biphenyl]-2,4-diol] | 58.2 µM | 4 µM | 31.5 µM |  |  |  |
| C=C(C)[C@@H]1CCC(C)=C[C@H]1c1c(C)cc(O)cc1O [compound 1c, (1′R,2′R)-5′,6-dimethyl-2′-(prop-1-en-2-yl)-1′,2′,3′,4′-tetrahydro-[1, 1′-biphenyl]-2,4-diol] | 2.6 µM | 1.7 µM | 24.8 µM |  |  |  |
| C=C(C)[C@@H]1CCC(C)=C[C@H]1c1c(O)cc(O)cc1CCc1ccccc1 [compound 1d, (1′R,2′R)-5′-methyl-6-phenethyl-2′-(prop-1-en-2-yl)-1′,2′,3′,4′-tetrahydro-[1, 1′-biphenyl]-2,4-diol] | 3.3 µM | 2.6 µM |  |  |  |  |
| C=C(C)[C@@H]1CCC(C)=C[C@H]1c1c(O)cc(O)cc1Br [compound 1e, (1′R,2′R)-6-bromo-5′-methyl-2′-(prop-1-en-2-yl)-1′,2′,3′,4′-tetrahydro-[1,1′-biphenyl]-2,4-diol] | 20 µM |  |  | 9.3 µM | 26.2 µM |  |
| C=C(C)[C@@H]1CCC(C)=C[C@H]1c1cc(Cl)c(O)cc1O [compound 1f, (1′R,2′R)-5-chloro-5′-methyl-2′-(prop-1-en-2-yl)-1′,2′,3′,4′-tetrahydro-[1, 1′-biphenyl]-2,4-diol] | 20 µM |  |  | 19.3 µM | 29.9 µM |  |
| C=C(C)[C@@H]1CCC(C)=C[C@H]1c1c(O)cc(O)cc1C#N [compound 1g, (1′R,2′R)-4,6-dihydroxy-5′-methyl-2′-(prop-1-en-2-yl)-1′,2′,3′,4′-tetrahydro-[1, 1′-biphenyl]-2-carbonitrile] | 74 µM |  |  | 8.6 µM | 61.1 µM |  |
| C=C(C)[C@@H]1CCC(C)=C[C@H]1c1c(O)cc(O)cc1OC [compound 1h, (1′R,2′R)-6-methoxy-5′-methyl-2′-(prop-1-en-2-yl)-1′,2′,3′,4′-tetrahydro-[1, 1′-biphenyl]-2,4-diol] |  |  |  | 55.3 µM | 35.8 µM | 78 µM |
| C=C(C)[C@@H]1CCC(C)=C[C@H]1c1ccc(O)c(C(C)=O)c1O [compound 1i, 1-((1′R,2′R)-2,4-dihydroxy-5′-methyl-2′-(prop-1-en-2-yl)-1′,2′,3′,4′-tetrahydro-[1, 1′-biphenyl]-3-yl)ethan-1-one] |  |  |  | 7.3 µM | 16.4 µM | 6.6 µM |
| C=C(C)[C@@H]1CCC(C)=C[C@H]1c1c(O)c(C(C)=O)c(O)c([C@@H]2C=C(C)CC[C@H]2C(=C)C)c1O [compound 1j, 1-((1R,1″R,2R,2″R)-2′,4′,6′-trihydroxy-5,5″-dimethyl-2,2″-di (prop-1-en-2-yl)-1,1″,2,2″,3,3″,4,4″-octahydro-[1,1′:3′,1″-terphenyl]-5′-yl)ethan-1-one] |  |  |  | 30.6 µM | 142 µM | 2 µM |
| C=C(C)[C@H]1CCC(C)=C[C@@H]1c1c(O)cc(OC)c([C@@H]2C=C(C)CC[C@H]2C(=C)C)c1O [compound 1k, (1R,1″S,2R,2″S)-6′-methoxy-5,5″-dimethyl-2,2″-di(prop-1-en-2-yl)-1, 1″,2,2″,3,3″,4,4″-octahydro-[1,1′:3′,1″-terphenyl]-2′,4′-diol] |  |  |  |  |  | 5.3 µM |
| C=C(C)[C@@H]1CCC(C)=C[C@H]1c1c(O)cc(O)c(C(C)=O)c1O [compound 1l, 1-((1′R,2′R)-2,4,6-trihydroxy-5′-methyl-2′-(prop-1-en-2-yl)-1′,2′,3′,4′-tetrahydro-[1,1′-biphenyl]-3-yl)ethan-1-one] |  |  |  | 6.6 µM | 7.99 µM | 23.3 µM |
| C=C(C)[C@@H]1CCC(C)=C[C@H]1c1ccc(O)c(Br)c1O [compound 1m, (1′R,2′R)-3-bromo-5′-methyl-2′-(prop-1-en-2-yl)-1′,2′,3′,4′-tetrahydro-[1, 1′-biphenyl]-2,4-diol] | 42.6 µM |  |  | 44.6 µM | 118 µM |  |
| C=C(C)[C@@H]1CCC(C)=C[C@H]1c1ccc(O)c(C(=O)O)c1O [compound 1n, (1′R,2′R)-2,4-dihydroxy-5′-methyl-2′-(prop-1-en-2-yl)-1′,2′,3′,4′-tetrahydro-[1, 1′-biphenyl]-3-carboxylic acid] |  |  |  | 13.3 µM | 30.7 µM | 10.6 µM |
| C=C(C)[C@@H]1CCC(C)=C[C@H]1c1cc(C(=O)NCCc2ccc(OC)cc2)c(O)cc1O [compound 1o, (1′R,2′R)-4,6-dihydroxy-N-(4-methoxyphenethyl)-5′-methyl-2′-(prop-1-en-2-yl)-1′, 2′,3′,4′-tetrahydro-[1,1′-biphenyl]-3-carboxamide] |  |  |  | 27.3 µM | 56.1 µM | 15.3 µM |
| C=C(C)[C@@H]1CCC(C)=C[C@H]1c1c(O)cc(O)cc1C(C)=O [compound 1p, 1-((1′R,2′R)-4,6-dihydroxy-5′-methyl-2′-(prop-1-en-2-yl)-1′,2′,3′,4′-tetrahydro-[1, 1′-biphenyl]-2-yl) ethan-1-one] |  |  |  | 2 µM | 2.1 µM | 4.6 µM |
| C=C(C)[C@@H]1CCC(C)=C[C@H]1c1cc(C(=O)NCCc2ccc(O)cc2)c(O)cc1O [compound 1q, (1′R,2′R)-4,6-dihydroxy-N-(4-hydroxyphenethyl)-5′-methyl-2′-(prop-1-en-2-yl)-1′, 2′,3′,4′-tetrahydro-[1,1′-biphenyl]-3-carboxamide] | 7.3 µM |  |  | 3.3 µM | 18.1 µM |  |

From patent US20240383830A1, “NOVEL CANNABIDIOL DERIVATIVE, METHOD FOR PREPARING SAME, AND COMPOSITION FOR COGNITIVE FUNCTION I[…]” (priority 2021, published 2024)
